Counter-ions that a name gives are not always drawn.
Columns and labels:
circulating lymphocytes = conditions: animals and man; cited from earlier work
[1] = clinical studies, first 24 hours of treatment; cited from earlier work
human S1P1 receptor = molecular target: T1, human S1P1 receptor (Homo sapiens, UniProt P21453); assay: S1P1 GTPγS assay; assay type: biochemical; conditions: agonist activity, [35S]-GTPγS binding, human S1P1 rat hepatoma membranes
T1 construct: expressed in transfected cells; membranes
T1 sequence (P21453 whole entry): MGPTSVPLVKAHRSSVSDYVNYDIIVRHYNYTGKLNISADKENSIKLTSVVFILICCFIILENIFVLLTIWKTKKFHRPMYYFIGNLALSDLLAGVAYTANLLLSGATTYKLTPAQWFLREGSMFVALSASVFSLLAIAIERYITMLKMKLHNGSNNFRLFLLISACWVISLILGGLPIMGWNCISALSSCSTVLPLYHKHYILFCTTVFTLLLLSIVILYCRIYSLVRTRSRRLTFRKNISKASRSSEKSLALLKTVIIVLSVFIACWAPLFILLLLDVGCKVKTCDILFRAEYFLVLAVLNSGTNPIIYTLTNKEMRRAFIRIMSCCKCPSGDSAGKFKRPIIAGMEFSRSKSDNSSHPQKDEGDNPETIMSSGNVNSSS
Description: (§1) For membrane preparations all steps were performed at 4° C. Rat hepatoma cells stably expressing the human S1P1 receptor or Rat Basophilic Leukaemia cells (RBL) stably expressing human S1P3 receptor were grown to 80% confluency before being harvested into 10 ml Phospho-Buffered Saline (PBS) and centrifuged at 1200 rpm for 5 minutes. After removal of the supernatant, the pellet was re-suspended and cells were homogenised within a glass Waring blender for 2 bursts of 15 secs in 200 mls of buffer (50 mM HEPES, 1 mM leupeptin, 25 μg/ml bacitracin, 1 mM EDTA, 1 mM PMSF, 2 μM pepstatin A). The blender was plunged into ice for 5 mins after the first burst and 10-40 mins after the final burst to allow foam to dissipate. The material was then spun at 500 g for 20 mins and the supernatant spun for 36 mins at 48,000 g. The pellet was resuspended in the same buffer as above but without PMSF and pepstatin A. The material was then forced through a 0.6 mm needle, made up to the required volume, (usually ×4 the volume of the original cell pellet), aliquoted and stored frozen at −80° C.
as §1, with “All” for “For membrane preparations all”, “Cells” for “Rat hepatoma cells stably expressing the human S1P1 receptor or Rat Basophilic Leukaemia cells (RBL) stably expressing human S1P3 receptor were grown to 80% confluency before being harvested into 10 ml Phospho-Buffered Saline (PBS) and centrifuged at 1200 rpm for 5 minutes. After removal of the supernatant, the pellet was re-suspended and cells”
Human S1P1 rat hepatoma membranes (1.5 μg/well) were adhered to a wheatgerm agglutinin (WGA)-coated scintillation proximity assay (SPA) beads (0.125 mg/well) in assay buffer (HEPES 20 mM, MgCl2 10 mM, NaCl 100 mM and pH adjusted to 7.4 using KOH 5M, GDP 10 μM FAC (final assay concentration) and saponin 90 μg/ml FAC was also added).
After 30 minutes pre-coupling on ice the bead and membrane suspension was dispensed into a white Greiner polypropylene LV384-well plate ([…]), containing 0.1 μl of the compound. 5 μl/well [^355]-GTPγS (0.5 nM final radioligand conc) made up in assay buffer was then added to agonist plates. The final assay cocktail (10.1 μl) was then centrifuged at 1000 rpm for 5 minutes then read immediately on a Viewlux reader.
All test compounds were dissolved in DMSO at a concentration of 10 mM and were prepared in 100% DMSO using a 1 in 4 dilution step to provide 11 point dose response curves. The dilutions were transferred to the assay plates ensuring that the DMSO concentration was constant across the plate for all assays.
All data was normalized to the mean of 16 high and 16 low control wells on each plate. A four parameter curve fit was then applied.
S1P1 expressing RH7777 membranes (1.5 μg/well) membranes (1.5 μg/well) were homogenised by passing through a 23G needle. These were then adhered to WGA-coated SPA beads (0.125 mg/well) in assay buffer (HEPES 20 mM, MgCl2 10 mM, NaCl 100 mM and pH adjusted to 7.4 using KOH 5M). GDP 10 μM FAC and saponin 90 μg/ml FAC were also added
After 30 minutes precoupling on ice, the bead and membrane suspension was dispensed into white Greiner polypropylene LV 384-well plates (5 μl/well), containing 0.1 μl of compound. 5 μl/well [^35S]-GTPγS (0.5 nM for S1P1 or 0.3 nM for S1P3 final radioligand concentration) made in assay buffer was then added to the plates. The final assay cocktail (10.1 μl) was then sealed, spun on a centrifuge, then read immediately on a Viewlux instrument.

Row | SMILES | effect on circulating lymphocytes (circulating lymphocytes) | bradycardia on treatment [1] | EC50 (human S1P1 receptor) [nM]
1 | CCCCCCCCc1ccc(CCC(N)(CO)CO)cc1 [FTY720] | reduce circulating lymphocytes | results in bradycardia | 
2 | CC(C)Oc1ccc(-c2nc(-c3cccc4c3CCNCC4)no2)cc1C#N [Example 7, 2-[(1-Methylethyl)oxy]-5-[3-(2,3,4,5-tetrahydro-1H-3-benzazepin-6-yl)-1,2,4-oxadiazol-5-yl]benzonitrile hydrochloride] |  |  | ≤ 10
3 | CC(C)Oc1ccc(-c2nc(-c3ccc4c(c3)CCN(CCCC(=O)O)CC4)no2)cc1C#N [Example 27, 4-[7-(5-{3-cyano-4-[(1-methylethyl)oxy]phenyl}-1,2,4-oxadiazol-3-yl)-1,2,4,5-tetrahydro-3H-3-benzazepin-3-yl]butanoic acid hydrochloride] |  |  | ≤ 10
4 | CC(C)Oc1ccc(-c2nc(-c3cccc4c3OCCNC4)no2)cc1C#N [Example 32, 2-[(1-Methylethyl)oxy]-5-[3-(2,3,4,5-tetrahydro-1,4-benzoxazepin-9-yl)-1,2,4-oxadiazol-5-yl]benzonitrile hydrochloride] |  |  | < 100
